Marks after values point to notes of the source that are not given here.
Tests used:
[1] = Surface tension and CMC, Fisher tensiometer, du Noüy ring method; format: physicochemical; design: γ CMC (surface tension at CMC): unit not given here; conditions: pH 7.0; synthetic samples
Method: Biosurfactants are molecules that can associate with each other leading to the formation of micelles. They can also interact with surfaces between phases of different polarity such as the air/water or oil/water interface.[77] To gain quantitative insights into the surface-active properties of microbial glycolipids, the surface tensions at CMC (γCMC) of ananatoside A (1) and ananatoside B (2) were measured using a Fisher tensiometer by means of the du Noüy ring method. The CMC, referring to the concentration of surfactant at which micelles start to form, was determined from a plot of surface tension again each concentration. […] Consequently, the surface tension measurements were performed quickly to avoid the precipitation of ananatoside A (1) into the aqueous medium.

[2] = Cytotoxicity, resazurin assay, summary over cell lines; format: cell-based; conditions: human, DLD-1 and WS1 cells (summary over the three lines); A549, DLD-1 and WS1; read-out: Cytotoxicity IC50 against human cell lines
Method: As the anticancer potential of microbial rhamnolipids has previously been reported,[16] we next sought to evaluate the in vitro cytotoxicity of our synthetic and natural glycolipids 1–6 against cancerous cell lines, i.e., human lung carcinoma (A549) and colorectal adenocarcinoma (DLD-1). The compounds were also tested against human normal skin fibroblasts (WS1) to estimate their selectivity towards cancer cells.
4. Experimental Procedures for Biological Evaluation and Surfactant Properties. […]
Cell Culture. Human lung carcinoma (A549), human colorectal adenocarcinoma (DLD-1), and human normal skin fibroblasts (WS1) cell lines were obtained from the American Type Culture Collection (ATCC). All cell lines were cultured in minimum essential medium containing Earle’s […]
salts and L-glutamine (Mediatech Cellgro, VA), to which were added 10% foetal bovine serum (Hyclone), vitamins (1×), penicillin (100 IU•mL-1), streptomycin (100 µg•mL−1), essential amino acids (1×), and sodium pyruvate (1×) (Mediatech Cellgro, VA). Cells were kept at 37 °C in a humidified environment containing 5% CO2.
Cytotoxicity Assay. Exponentially growing A549, DLD-1 or WS1 cells were plated in 96-well microplates (Costar, Corning Inc.) at a density of 5 × 10^3 cells per well in 100 µL of culture medium and were allowed to adhere for 16 h prior treatment. Increasing concentrations of each compound in biotech DMSO (Sigma-Aldrich) were then added (100 µL per well) and the cells were incubated for 48 h. The final concentration of DMSO in the culture medium was maintained at 0.5% (v/v) to avoid solvent toxicity. Cytotoxicity was assessed using resazurin9 on an automated 96-well Fluoroskan Ascent F1TM plate reader (Labsystems) using excitation and emission wavelengths of 530 and 590 nm, respectively. Fluorescence was proportional to the cellular metabolic activity in each well. Survival percentage was defined as the fluorescence in experimental wells as compared to that in control wells after subtraction of blank values. Each experiment was carried out three times in triplicate. IC50 results were expressed as means ± standard deviation. […]

sheep blood erythrocytes = assay: Hemolytic activity; format: cell-based; conditions: sheep blood erythrocytes; 1 h, 37 °C; max tested 200 μM
Method: Owing to their surfactant properties, glycolipids can break the membrane of red blood cells causing hemolytic activity.[18] To understand if the cytotoxicity of macrolactones 1, 4, 5β, and 6β was due to their surface tension activity, we evaluated the hemolytic potential of synthetic glycolipids 1–6 against sheep erythrocytes (Table 5). […] The non-cytotoxic rhamnolipid 3 was also found to exert a weak hemolytic activity (HC50 = 65 ± 6 μM). […]
Hemolytic Activity. The hemolytic activity of the synthetic surfactants was evaluated as previously described with small modifications.10 Defibrinated sheep blood (Oxoid) was centri fuged at 1000 × g for 5 min. The pellet containing erythrocytes was washed once and suspended in 1X PBS to obtain a 1% erythrocytes suspension. All samples were suspended in DMSO/PBS (5:1 v/v) and serially diluted in a 96 -well plate to obtain a range of co ncentrations from 1 mM to 7.8 µM.
The erythrocytes suspension (160 µL) was added to 40 µL of samples to obtain final concentrations […]
ranging between 200 µM and 1.56 µM. Triton X-100 was used as a positive hemolysis control.
The plate was then incubated at 37 °C with agitation at 150 rpm for 1 h and centrifuged at 1500 × g for 5 min. The supernatant was transferred in an empty plate and absorbance was measured at 540 nm using a Cytation3 microplate reader (Biotek). HC50 was calculated in comparison with the positive control. The experiment was performed in triplicate and repeated three times. […]

[3] = Dynamic light scattering (Zetasizer), hydrodynamic diameter of micelles; format: physicochemical; conditions: pH 7.0; concentration 80 μM
Source text: In parallel to these experiments, we took advantage of dynamic light scattering (DLS) to evaluate the hydrodynamic diameter of biosurfactant micelles formed at concentrations above the CMC (Table 4).[79] DLS considers the intensity of light scattered by spherical particles, which prevents its application for highly polydisperse and non-spherical colloidal systems. […] Once again, due to its hydrophobicity, ananatoside A (1) was too polydisperse for conducting a proper distribution analysis, showing a Z-average value above 800 nm, which meant that the particles were aggregated in water at the tested concentration. Similar results were obtained for ananatoside A (1) when the DLS experiments were conducted in DMSO as the solvent.

In the case of `CCCCCCC[C@@H]1CC(=O)OC[C@H]2O[C@@H](O[C@H](CCCCCCC)CC(=O)O1)[C@H](O)[C@@H](O)[C@@H]2O` [Compound 1, ananatoside A], the “CMC (critical micelle concentration)” value [1] was 43 ± 2 µM, the “γ CMC (surface tension at CMC)” value [1] was 37 ± 1 and the IC50 at 48 h [2] was 50 to 58 µM. The “Hemolysis (HC50 in μM) Erythrocytes” value (sheep blood erythrocytes) was 12.3 ± 0.3 µM.

For `CCCCCCC[C@H](CC(=O)O)OC(=O)C[C@@H](CCCCCCC)O[C@@H]1O[C@H](CO)[C@@H](O)[C@H](O)[C@H]1O` [Compound 2, ananatoside B], the “CMC (critical micelle concentration)” value [1] was 63 ± 2 µM, the “γ CMC (surface tension at CMC)” value [1] was 28 ± 1 and the IC50 at 48 h [2] was over 200 µM. The “Hemolysis (HC50 in μM) Erythrocytes” value (sheep blood erythrocytes) was >200 ^d μM and the “Z-Average (hydrodynamic diameter of micelles)” value [3] was 99.0 nm.
